Measurements from patent US20260216154A1, “POTASSIUM CHANNEL BLOCKERS OR DERIVATIVES THEREOF FOR PREVENTING, ALLEVIATING, AND/OR TREATING MORBIDITY AND MORTALITY INDUCED BY PATHOGENS OR OTHER INDUCERS OF IMMUNE […]/OR EXCESS IMMUNE ACTIVATI” (University of Rochester, priority 2023, published 2026).
Entries after “also recorded” stand apart in the source; their conditions may differ.

Experiments:
influenza virus (x31) = type: in vivo, mice
[1] = system: non-neurotropic, non-lethal influenza virus (x31 strain); type: in vivo, mice; settings: accelerating rod, three consecutive runs

## Nc1ccncc1 [4-AP, 4-aminopyridine]
Influenza virus (x31); […], 4-AP 1.5 mg/kg, corticosteroid 1 mg/kg, N=7/group
  mice surviving until at least Day 14 (survivors/treated): 7/7
Influenza virus (x31); mouse, in vivo
  influenza-induced weight loss (in words): lesser weight loss; also recorded: attenuated
  survival of infected ATM KO mice (in words): complete rescue from death
[1]
  animals showing a decreased time to fall on the rotarod: 27%
